Tests used:
[1] = test system: Tyrosine-protein kinase ABL1 (Homo sapiens), P00519 [M351T]; conditions: Compound concentration 1000.0 nM
[2] = molecular target: Serine/threonine-protein kinase Nek11 (Homo sapiens) (UniProt Q8NG66); conditions: Compound concentration 1000.0 nM
[3] = molecular target: Mitogen-activated protein kinase 6 (Homo sapiens) (UniProt Q16659); conditions: Compound concentration 1000.0 nM
[4] = molecular target: Serine/threonine-protein kinase 24 (Homo sapiens) (UniProt Q9Y6E0); conditions: Compound concentration 1000.0 nM
[5] = molecular target: Fibroblast growth factor receptor 2 (Homo sapiens) (UniProt P21802); conditions: Compound concentration 1000.0 nM
[6] = molecular target: Mitogen-activated protein kinase kinase kinase 5 (Homo sapiens) (UniProt Q99683); conditions: Compound concentration 1000.0 nM
[7] = molecular target: Serine/threonine-protein kinase TAO3 (Homo sapiens) (UniProt Q9H2K8); conditions: Compound concentration 1000.0 nM
[8] = test system: Phosphatidylinositol 4,5-bisphosphate 3-kinase catalytic subunit alpha isoform (Homo sapiens), P42336 [Q546K]; conditions: Compound concentration 1000.0 nM
[9] = test system: Tyrosine-protein kinase ABL1 (Homo sapiens), P00519 [Q252H]; conditions: Compound concentration 1000.0 nM
[10] = molecular target: Cyclin-dependent kinase 4 (Homo sapiens) (UniProt P11802); conditions: Compound concentration 1000.0 nM
[11] = molecular target: LIM domain kinase 1 (Homo sapiens) (UniProt P53667); conditions: Compound concentration 1000.0 nM
[12] = molecular target: Dual specificity mitogen-activated protein kinase kinase 6 (Homo sapiens) (UniProt P52564); conditions: Compound concentration 1000.0 nM
[13] = molecular target: Serine/threonine-protein kinase TBK1 (Homo sapiens) (UniProt Q9UHD2); conditions: Compound concentration 1000.0 nM
[14] = molecular target: Protein-tyrosine kinase 6 (Homo sapiens) (UniProt Q13882); conditions: Compound concentration 1000.0 nM
[15] = molecular target: Dual specificity protein kinase CLK1 (Homo sapiens) (UniProt P49759); conditions: Compound concentration 1000.0 nM
[16] = molecular target: Serine/threonine-protein kinase Nek10 (Homo sapiens) (UniProt Q6ZWH5); conditions: Compound concentration 1000.0 nM
[17] = molecular target: 5-hydroxytryptamine receptor 1E (Homo sapiens) (UniProt P28566); conditions: Compound concentration 10.0 uM
[18] = test system: Proto-oncogene tyrosine-protein kinase receptor Ret (Homo sapiens), P07949 [V804L]; conditions: Compound concentration 1000.0 nM
[19] = molecular target: Ribosomal protein S6 kinase alpha-5 (Homo sapiens) (UniProt O75582); conditions: Compound concentration 1000.0 nM
[20] = molecular target: Serine/threonine-protein kinase Nek6 (Homo sapiens) (UniProt Q9HC98); conditions: Compound concentration 1000.0 nM
[21] = molecular target: Phosphatidylinositol 4-phosphate 5-kinase type-1 alpha (Homo sapiens) (UniProt Q99755); conditions: Compound concentration 1000.0 nM
[22] = molecular target: Serine/threonine-protein kinase MARK1 (Homo sapiens) (UniProt Q9P0L2); conditions: Compound concentration 1000.0 nM
[23] = test system: Epidermal growth factor receptor (Homo sapiens), P00533 [UNDEFINED MUTATION]; conditions: Compound concentration 1000.0 nM
[24] = molecular target: Serine/threonine-protein kinase 10 (Homo sapiens) (UniProt O94804); conditions: Compound concentration 1000.0 nM
[25] = molecular target: SRSF protein kinase 3 (Homo sapiens) (UniProt Q9UPE1); conditions: Compound concentration 1000.0 nM
[26] = molecular target: Cyclin-dependent kinase-like 3 (Homo sapiens) (UniProt Q8IVW4); conditions: Compound concentration 1000.0 nM
[27] = test system: Tyrosine-protein kinase ABL1 (Homo sapiens), P00519 [F317I]; conditions: Compound concentration 1000.0 nM
[28] = molecular target: Proto-oncogene tyrosine-protein kinase Src (Homo sapiens) (UniProt P12931); conditions: Compound concentration 1000.0 nM
[29] = molecular target: Ephrin type-B receptor 6 (Homo sapiens) (UniProt O15197); conditions: Compound concentration 1000.0 nM
[30] = molecular target: cGMP-dependent protein kinase 1 (Homo sapiens) (UniProt Q13976); conditions: Compound concentration 1000.0 nM
[31] = test system: Receptor-type tyrosine-protein kinase FLT3 (Homo sapiens), P36888 [D835H]; conditions: Compound concentration 1000.0 nM
[32] = test system: Phosphatidylinositol 4,5-bisphosphate 3-kinase catalytic subunit alpha isoform (Homo sapiens), P42336 [E542K]; conditions: Compound concentration 1000.0 nM
[33] = molecular target: Protein kinase C epsilon type (Homo sapiens) (UniProt Q02156); conditions: Compound concentration 1000.0 nM
[34] = molecular target: Cyclin-dependent kinase 8 (Homo sapiens) (UniProt P49336); conditions: Compound concentration 1000.0 nM
[35] = test system: Tyrosine-protein kinase ABL1 (Homo sapiens), P00519 [E255K]; conditions: Compound concentration 1000.0 nM
[36] = test system: Receptor-type tyrosine-protein kinase FLT3 (Homo sapiens), P36888 [UNDEFINED MUTATION]; conditions: Compound concentration 1000.0 nM
[37] = molecular target: Glycogen synthase kinase-3 beta (Homo sapiens) (UniProt P49841); conditions: Compound concentration 1000.0 nM
[38] = molecular target: Histamine H2 receptor (Homo sapiens) (UniProt P25021); conditions: Compound concentration 10.0 uM
[39] = molecular target: Phosphatidylinositol 4,5-bisphosphate 3-kinase catalytic subunit alpha isoform (Homo sapiens) (UniProt P42336); conditions: Compound concentration 1000.0 nM
[40] = molecular target: MAP/microtubule affinity-regulating kinase 4 (Homo sapiens) (UniProt Q96L34); conditions: Compound concentration 1000.0 nM
[41] = molecular target: Mitogen-activated protein kinase kinase kinase kinase 2 (Homo sapiens) (UniProt Q12851); conditions: Compound concentration 1000.0 nM
[42] = molecular target: Membrane-associated tyrosine- and threonine-specific cdc2-inhibitory kinase (Homo sapiens) (UniProt Q99640); conditions: Compound concentration 1000.0 nM
[43] = molecular target: Epithelial discoidin domain-containing receptor 1 (Homo sapiens) (UniProt Q08345); conditions: Compound concentration 1000.0 nM
[44] = molecular target: High affinity nerve growth factor receptor (Homo sapiens) (UniProt P04629); conditions: Compound concentration 1000.0 nM

Sequence of Cyclin-dependent kinase 4 (Homo sapiens) (P11802 whole entry, the tested form may be a part): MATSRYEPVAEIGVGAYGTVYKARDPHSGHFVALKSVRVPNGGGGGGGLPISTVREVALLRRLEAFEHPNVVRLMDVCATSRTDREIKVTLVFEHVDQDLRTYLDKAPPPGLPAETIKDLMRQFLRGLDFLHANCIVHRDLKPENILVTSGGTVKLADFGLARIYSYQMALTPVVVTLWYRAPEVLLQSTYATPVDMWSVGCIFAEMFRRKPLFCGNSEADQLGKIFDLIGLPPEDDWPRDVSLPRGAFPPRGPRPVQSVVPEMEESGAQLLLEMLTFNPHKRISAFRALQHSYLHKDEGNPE
Sequence of Fibroblast growth factor receptor 2 (Homo sapiens) (P21802 22-821 limits assumed): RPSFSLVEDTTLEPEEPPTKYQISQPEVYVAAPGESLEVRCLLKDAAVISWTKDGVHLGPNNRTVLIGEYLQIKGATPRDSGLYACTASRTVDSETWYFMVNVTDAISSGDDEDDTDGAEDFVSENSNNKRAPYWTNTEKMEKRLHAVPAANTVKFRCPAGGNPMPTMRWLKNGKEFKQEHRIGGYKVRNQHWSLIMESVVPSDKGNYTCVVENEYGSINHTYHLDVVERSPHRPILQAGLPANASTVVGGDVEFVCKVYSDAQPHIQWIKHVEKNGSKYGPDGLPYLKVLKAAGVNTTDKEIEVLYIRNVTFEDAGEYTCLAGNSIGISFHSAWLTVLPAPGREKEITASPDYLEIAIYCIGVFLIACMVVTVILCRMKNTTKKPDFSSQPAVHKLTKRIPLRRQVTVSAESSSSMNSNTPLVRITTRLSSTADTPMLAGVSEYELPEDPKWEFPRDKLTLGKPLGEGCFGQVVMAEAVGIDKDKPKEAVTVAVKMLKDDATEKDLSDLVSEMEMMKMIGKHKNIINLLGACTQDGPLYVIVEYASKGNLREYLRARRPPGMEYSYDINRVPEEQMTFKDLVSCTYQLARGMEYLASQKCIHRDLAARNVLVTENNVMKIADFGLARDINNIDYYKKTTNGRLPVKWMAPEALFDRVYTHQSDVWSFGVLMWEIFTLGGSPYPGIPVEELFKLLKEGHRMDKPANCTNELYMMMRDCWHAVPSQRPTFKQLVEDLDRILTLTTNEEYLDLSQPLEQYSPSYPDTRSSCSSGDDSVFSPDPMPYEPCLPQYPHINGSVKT
Sequence of Protein kinase C epsilon type (Homo sapiens) (Q02156 whole entry): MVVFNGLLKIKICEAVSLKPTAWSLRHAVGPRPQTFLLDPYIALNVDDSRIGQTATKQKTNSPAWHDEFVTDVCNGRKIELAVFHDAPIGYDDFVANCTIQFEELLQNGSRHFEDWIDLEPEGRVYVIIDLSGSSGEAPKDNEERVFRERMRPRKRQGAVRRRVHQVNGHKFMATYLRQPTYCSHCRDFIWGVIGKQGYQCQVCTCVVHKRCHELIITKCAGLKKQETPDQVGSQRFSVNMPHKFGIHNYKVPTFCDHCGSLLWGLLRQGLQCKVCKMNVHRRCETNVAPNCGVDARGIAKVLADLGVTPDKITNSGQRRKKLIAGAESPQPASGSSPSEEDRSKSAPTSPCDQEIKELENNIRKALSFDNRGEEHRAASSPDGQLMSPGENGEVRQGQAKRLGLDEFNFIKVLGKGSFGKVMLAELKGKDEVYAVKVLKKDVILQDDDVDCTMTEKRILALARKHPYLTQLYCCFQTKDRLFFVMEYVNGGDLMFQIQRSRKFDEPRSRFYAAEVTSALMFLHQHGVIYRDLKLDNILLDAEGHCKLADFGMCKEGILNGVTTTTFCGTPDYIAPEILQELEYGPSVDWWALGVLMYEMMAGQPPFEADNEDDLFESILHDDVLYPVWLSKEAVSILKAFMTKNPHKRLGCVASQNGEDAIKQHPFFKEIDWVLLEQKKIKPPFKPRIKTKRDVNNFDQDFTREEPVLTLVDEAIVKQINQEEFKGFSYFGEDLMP
Sequence of Serine/threonine-protein kinase MARK1 (Homo sapiens) (Q9P0L2 whole entry, looked up): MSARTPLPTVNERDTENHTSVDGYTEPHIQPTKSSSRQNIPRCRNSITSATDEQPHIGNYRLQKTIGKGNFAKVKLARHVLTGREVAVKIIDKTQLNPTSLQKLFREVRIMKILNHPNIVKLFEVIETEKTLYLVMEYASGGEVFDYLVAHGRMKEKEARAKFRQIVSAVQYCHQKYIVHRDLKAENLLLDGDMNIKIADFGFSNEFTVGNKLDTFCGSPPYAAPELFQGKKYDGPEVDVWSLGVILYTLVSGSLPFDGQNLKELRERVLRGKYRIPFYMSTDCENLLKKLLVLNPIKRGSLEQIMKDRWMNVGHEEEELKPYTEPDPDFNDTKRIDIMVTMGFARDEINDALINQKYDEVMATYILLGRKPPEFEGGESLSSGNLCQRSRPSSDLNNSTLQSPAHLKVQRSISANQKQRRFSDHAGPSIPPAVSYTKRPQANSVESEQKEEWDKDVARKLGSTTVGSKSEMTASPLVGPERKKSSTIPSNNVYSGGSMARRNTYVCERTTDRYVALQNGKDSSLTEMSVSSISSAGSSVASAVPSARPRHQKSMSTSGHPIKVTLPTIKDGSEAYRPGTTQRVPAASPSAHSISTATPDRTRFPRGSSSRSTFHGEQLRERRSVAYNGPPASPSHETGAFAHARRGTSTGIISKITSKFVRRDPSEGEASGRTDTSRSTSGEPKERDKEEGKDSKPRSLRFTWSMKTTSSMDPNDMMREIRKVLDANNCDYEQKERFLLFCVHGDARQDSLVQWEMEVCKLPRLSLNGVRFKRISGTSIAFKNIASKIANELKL
Sequence of Epithelial discoidin domain-containing receptor 1 (Homo sapiens) (Q08345 whole entry, the tested form may be a part): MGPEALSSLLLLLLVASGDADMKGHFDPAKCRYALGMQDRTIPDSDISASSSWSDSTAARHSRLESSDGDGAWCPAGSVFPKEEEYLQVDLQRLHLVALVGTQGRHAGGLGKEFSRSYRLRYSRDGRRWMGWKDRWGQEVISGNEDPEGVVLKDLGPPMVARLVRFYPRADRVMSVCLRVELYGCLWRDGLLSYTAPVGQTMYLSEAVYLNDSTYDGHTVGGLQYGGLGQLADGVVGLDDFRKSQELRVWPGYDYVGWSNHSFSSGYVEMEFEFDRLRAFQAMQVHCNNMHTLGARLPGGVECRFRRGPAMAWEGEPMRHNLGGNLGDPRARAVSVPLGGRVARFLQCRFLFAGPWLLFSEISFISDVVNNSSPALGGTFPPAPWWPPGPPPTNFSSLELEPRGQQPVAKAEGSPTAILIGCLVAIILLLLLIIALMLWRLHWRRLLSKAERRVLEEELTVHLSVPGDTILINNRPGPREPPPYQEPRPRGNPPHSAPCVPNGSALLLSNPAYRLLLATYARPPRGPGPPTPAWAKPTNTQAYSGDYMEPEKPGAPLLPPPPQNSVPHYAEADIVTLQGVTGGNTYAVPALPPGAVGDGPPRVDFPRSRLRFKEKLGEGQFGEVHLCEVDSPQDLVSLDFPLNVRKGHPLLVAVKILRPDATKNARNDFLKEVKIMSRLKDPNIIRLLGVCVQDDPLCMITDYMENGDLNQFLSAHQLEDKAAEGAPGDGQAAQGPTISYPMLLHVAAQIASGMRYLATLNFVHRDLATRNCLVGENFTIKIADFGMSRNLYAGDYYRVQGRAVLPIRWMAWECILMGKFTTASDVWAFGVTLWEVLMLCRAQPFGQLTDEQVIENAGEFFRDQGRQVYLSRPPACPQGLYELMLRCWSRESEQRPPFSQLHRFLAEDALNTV
Sequence of Protein-tyrosine kinase 6 (Homo sapiens) (Q13882 whole entry, looked up): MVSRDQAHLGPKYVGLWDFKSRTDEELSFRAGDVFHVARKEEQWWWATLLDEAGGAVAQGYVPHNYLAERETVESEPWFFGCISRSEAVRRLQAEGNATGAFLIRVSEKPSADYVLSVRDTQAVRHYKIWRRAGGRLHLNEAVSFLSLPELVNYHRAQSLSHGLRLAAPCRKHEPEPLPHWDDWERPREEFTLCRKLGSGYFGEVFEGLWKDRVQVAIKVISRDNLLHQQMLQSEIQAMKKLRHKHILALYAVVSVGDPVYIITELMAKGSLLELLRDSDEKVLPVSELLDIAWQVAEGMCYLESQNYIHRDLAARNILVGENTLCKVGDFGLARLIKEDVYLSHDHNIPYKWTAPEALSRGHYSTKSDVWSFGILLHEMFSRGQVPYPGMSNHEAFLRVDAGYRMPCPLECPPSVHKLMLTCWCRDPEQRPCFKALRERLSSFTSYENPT
Sequence of Ribosomal protein S6 kinase alpha-5 (Homo sapiens) (O75582 whole entry, looked up): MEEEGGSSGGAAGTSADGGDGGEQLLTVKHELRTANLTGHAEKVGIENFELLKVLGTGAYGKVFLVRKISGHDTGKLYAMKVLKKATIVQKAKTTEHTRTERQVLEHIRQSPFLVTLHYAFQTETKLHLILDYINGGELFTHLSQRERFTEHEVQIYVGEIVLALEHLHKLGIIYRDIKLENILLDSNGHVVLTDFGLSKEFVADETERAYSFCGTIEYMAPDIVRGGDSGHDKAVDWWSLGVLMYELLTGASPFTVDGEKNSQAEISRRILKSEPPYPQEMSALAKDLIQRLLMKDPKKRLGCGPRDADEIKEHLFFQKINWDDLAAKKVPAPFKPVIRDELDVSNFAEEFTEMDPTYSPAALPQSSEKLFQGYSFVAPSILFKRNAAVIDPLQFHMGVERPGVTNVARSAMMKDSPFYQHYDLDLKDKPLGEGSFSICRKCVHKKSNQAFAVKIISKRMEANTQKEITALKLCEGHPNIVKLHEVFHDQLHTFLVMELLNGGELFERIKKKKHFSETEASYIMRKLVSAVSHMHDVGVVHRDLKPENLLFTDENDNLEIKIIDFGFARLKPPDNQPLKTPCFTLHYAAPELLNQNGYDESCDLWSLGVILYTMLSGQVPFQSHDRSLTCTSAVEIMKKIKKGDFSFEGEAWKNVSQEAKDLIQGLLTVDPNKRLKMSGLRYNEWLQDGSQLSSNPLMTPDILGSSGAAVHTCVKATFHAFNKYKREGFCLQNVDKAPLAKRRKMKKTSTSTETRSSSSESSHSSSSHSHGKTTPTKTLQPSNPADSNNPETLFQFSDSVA

C[C@H](NC(=O)c1cnc2n1[C@](C)(Cc1ccc(C#N)cc1)C(=O)N2c1cc(Cl)c(F)c(Cl)c1)C(=O)NC1(c2ccccn2)CC1 [BI 1950]
inactive: residual activity [1] 100% | residual activity [2] 100% | residual activity [3] 100% | residual activity [4] 100% | residual activity [5] 100% | residual activity [6] 92% | residual activity [7] 88% | residual activity [8] 97% | residual activity [9] 90% | residual activity [10] 100% | residual activity [11] 100% | residual activity [12] 80% | residual activity [13] 97% | residual activity [14] 92% | residual activity [15] 86% | residual activity [16] 100% | inhibition [17] 17.7% | residual activity [18] 100% | residual activity [19] 96% | residual activity [20] 100% | residual activity [21] 100% | residual activity [22] 100% | residual activity [23] 100% | residual activity [24] 100% | residual activity [25] 100% | residual activity [26] 100% | residual activity [27] 100% | residual activity [28] 100% | residual activity [29] 100% | residual activity [30] 62% | residual activity [31] 100% | residual activity [32] 100% | residual activity [33] 100% | residual activity [34] 100% | residual activity [35] 93% | residual activity [36] 100% | residual activity [37] 100% | inhibition [38] 11.8% | residual activity [39] 100% | residual activity [40] 100% | residual activity [41] 100% | residual activity [42] 79% | residual activity [43] 100% | residual activity [44] 98%

C[C@@]1(Cc2ccc(C#N)cc2)C(=O)N(c2cc(Cl)cc(Cl)c2)c2ncc(C(=O)NC3(c4nc(C5CCC5)no4)CC3)n21 [BI 9446]
inactive: residual activity [1] 100% | residual activity [2] 100% | residual activity [3] 100% | residual activity [4] 93% | residual activity [5] 100% | residual activity [6] 100% | residual activity [7] 91% | residual activity [8] 88% | residual activity [9] 89% | residual activity [10] 100% | residual activity [11] 90% | residual activity [12] 80% | residual activity [13] 95% | residual activity [14] 100% | residual activity [15] 100% | residual activity [16] 100% | inhibition [17] 31.5% | residual activity [18] 100% | residual activity [19] 100% | residual activity [20] 100% | residual activity [21] 100% | residual activity [22] 100% | residual activity [23] 100% | residual activity [24] 100% | residual activity [25] 100% | residual activity [26] 100% | residual activity [27] 94% | residual activity [28] 98% | residual activity [29] 100% | residual activity [30] 100% | residual activity [31] 100% | residual activity [32] 83% | residual activity [33] 100% | residual activity [34] 100% | residual activity [35] 95% | residual activity [36] 100% | residual activity [37] 100% | inhibition [38] 11% | residual activity [39] 87% | residual activity [40] 100% | residual activity [41] 100% | residual activity [42] 75% | residual activity [43] 81% | residual activity [44] 100%
